Experimental data taken from ChEMBL document CHEMBL1221406, “Germacrane-type sesquiterpenoids from the roots of Valeriana officinalis var. latifolia” (J Nat Prod, 2010).
Activity calls are given as the source filed them. The calls are words filed in the database; no cut-off is given here.

biological target: Acetylcholinesterase (Homo sapiens) (UniProt P22303); experiment: Inhibition of AchE at 100 uM after 30 mins by Ellman's method
Sequence (P22303 whole entry): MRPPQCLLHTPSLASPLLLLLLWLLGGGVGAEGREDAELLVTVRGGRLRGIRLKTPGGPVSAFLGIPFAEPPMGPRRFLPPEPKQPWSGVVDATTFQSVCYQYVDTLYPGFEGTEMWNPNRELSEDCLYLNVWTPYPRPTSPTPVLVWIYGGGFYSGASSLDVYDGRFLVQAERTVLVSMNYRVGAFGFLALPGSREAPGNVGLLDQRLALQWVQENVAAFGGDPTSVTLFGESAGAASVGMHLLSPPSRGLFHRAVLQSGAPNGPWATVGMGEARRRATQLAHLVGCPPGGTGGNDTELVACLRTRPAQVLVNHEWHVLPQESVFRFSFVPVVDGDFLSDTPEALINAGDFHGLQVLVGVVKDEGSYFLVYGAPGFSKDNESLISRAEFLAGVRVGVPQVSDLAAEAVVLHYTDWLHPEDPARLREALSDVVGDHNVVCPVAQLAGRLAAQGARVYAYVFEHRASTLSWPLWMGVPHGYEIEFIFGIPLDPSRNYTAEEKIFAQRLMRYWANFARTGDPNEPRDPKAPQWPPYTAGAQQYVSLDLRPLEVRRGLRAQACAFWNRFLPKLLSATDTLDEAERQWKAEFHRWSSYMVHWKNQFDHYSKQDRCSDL

Row | Compound | inhibition
1 | CC(=O)OC/C1=C\CC/C(C=O)=C\[C@@H]2[C@@H](CC1)C2(C)C | inactive
2 | CC1(C)[C@@H]2CC[C@@]3(C)O[C@@H]3CC/C(C=O)=C\[C@@H]21 | 25.9%
3 | CC(=O)OC[C@@]12CC[C@@H]3[C@H](/C=C(/C=O)CC[C@H]1O2)C3(C)C | inactive
4 | C/C1=C\CC/C(C=O)=C\[C@H]2[C@@H](C[C@H]1O)C2(C)C | inactive
5 | CC(=O)O[C@H]1C/C(C)=C/CC/C(C(=O)O)=C/[C@@H]2[C@H]1C2(C)C | inactive
6 | C=C1CC[C@H]2[C@@H](/C=C(\C(=O)O)CC[C@@H]1O)C2(C)C | inactive
7 | CC1(C)[C@@H]2CC[C@@]3(C=O)O[C@@H]3CC/C(C=O)=C\[C@@H]21 | inactive
8 | CC(=O)O[C@H]1C[C@@]2(C)O[C@@H]2CC/C(C=O)=C\[C@H]2[C@@H]1C2(C)C | inactive
9 | C/C1=C\CC/C(C(=O)O)=C/[C@@H]2[C@H](CC1)C2(C)C | inactive
